{"source": "patent US20250352477A1", "about": "“FORMULATIONS AND ORAL DOSAGE FORMS OF LIPOPHILIC AGENTS” (CANNBIOREX PHARMA LTD, priority 2022, published 2025)", "test": "Pharmacokinetic study of LPNF-CBD formulations in freely moving rat model", "format": "in vivo", "details": "CBD 15 mg/kg; for half-life: read-out: Elimination half-life (converted)", "description": "For pharmacokinetic analysis of LPNF-CBD powders, male Wistar rats were tested in […] groups: a control group received LPNF-CBD prepared as in EXAMPLE 2 (N=5) with CBD concentration 2 mg/mL, administered by oral gavage; experimental groups received LPNF-CBD Polypore or Neusilin US2 powders dispersed in water (N=4 and N=5, respectively) with LPNF-CBD concentration of 20 mg/ml, administered by oral gavage; control groups received CBD in propylene glycol:ethanol:water (4.5:4.5:1 v/v) with CBD concentration of 3 mg/mL, administered by oral gavage or intravenously (N=5 and N=3, respectively). In all groups, the administered CBD dose was 15 mg/kg. For pharmacokinetic (PK) studies, blood samples (0.35 mL) were taken at 0, 0.3 h, 0.6 h, 1 h, 1.5 h, 2 h, 3 h, 4 h and 6 h time points. Plasma was separated by centrifugation and stored frozen until LCMS analysis.\nPK study was conducted in the freely moving rat model (in-vivo) in five groups of animals receiving: (1) CBD in propylene glycol:ethanol:water solution; (2) LPNF-CBD, (3) LPNF-CBD Polypore and (4) LPNF-CBD Neusilin powders dispersed in water; all administered by oral gavage; and (5) CBD in propylene glycol:ethanol:water solution administered IV.", "key": {"[1]": {"details": "male, Wistar, in vivo, oral gavage"}}, "note": "Read-outs that look alike come from different tables or passages of the source.", "data": [{"smiles": "C=C(C)[C@@H]1CCC(C)=C[C@H]1c1c(O)cc(CCCCC)cc1O", "note": "[CBD, Cannabidiol]", "values": [{"measurement": "Liner terminal slope", "setting": "IV", "value": 0.2, "unit": "h⁻¹"}, {"measurement": "half-life", "setting": "male, Wistar, in vivo, IV", "value": 4.1, "unit": "h"}, {"measurement": "AUC", "setting": "[1]", "value": 158, "unit": "ng·h/mL"}, {"measurement": "half-life", "setting": "[1]", "value": 3.2, "unit": "h"}, {"measurement": "Liner terminal slope", "setting": "oral gavage", "value": 0.2, "unit": "h⁻¹"}]}]}
